Laboratory results taken from patent US7323447B2, “Hepatitis C virus inhibitors” (Bristol-Myers Squibb Company, priority 2005, dated 2008).
Like-named read-outs stand apart in the source and are kept apart here.

Tests used:
[1] = target: T1, HCV NS3/4A protease complex (BMS strain) (UniProt P27958); assay: FRET peptide assay to monitor HCV NS3/4A proteolytic activity, BMS strain; type: biochemical, Hepatitis C virus (genotype 1a); conditions: read-out: IC50 Range; HCV NS3/4A enzyme assay; Table 1
T1 construct: other: HCV NS3/4A enzyme assay; said of H77 and J4L6S; fused on or other part: Three-lysine solubilising tail at the NS4A C-terminus and a His tag from pET21b (Ni-NTA purification), for the H77 and J4L6S constructs
Description: HCV NS3 protease complexes, derived from the BMS strain, H77 strain or J4L6S strain, were generated, as described below. These purified recombinant proteins were generated for use in a homogeneous assay (see below) to provide an indication of how effective compounds of the present disclosure would be in inhibiting HCV NS3 proteolytic activity.
Serum from an HCV-infected patient was obtained from Dr. T. Wright, San Francisco Hospital. An engineered full-length cDNA (compliment deoxyribonucleic acid) template of the HCV genome (BMS strain) was constructed from DNA fragments obtained by reverse transcription-PCR (RT-PCR) of serum RNA (ribonucleic acid) and using primers selected on the basis of homology between other genotype 1a strains. From the determination of the entire genome sequence, a genotype 1a was assigned to the HCV isolate according to the classification of Simmonds et al. (See P Simmonds, K A Rose, S Graham, S W Chan, F McOmish, B C Dow, E A Follett, P L Yap and […] Marsden, J. Clin. Microbiol., 31(6), 1493-1503 (1993)). […] The infectious clones, H77 (1a genotype) and J4L6S (1b genotype) were obtained from R. Purcell (NIH) and the sequences are published in Genbank (AAB67036, see Yanagi, M., Purcell, R. H., Emerson, S. U. and Bukh, J. Proc. Natl. Acad. Sci. U.S.A. 94(16), 8738-8743 (1997); AF054247, see Yanagi, M., St Claire, M., Shapiro, M., Emerson, S. U., Purcell, R. H. and Bukh, J, Virology 244 (1), 161-172. (1998)).
NS3/4A protease complex-containing fractions were pooled and loaded on a desalting column Superdex-S200 pre-equilibrated with buffer D (25 mM HEPES, pH 7.5, 20% glycerol, 300 mM NaCl, 0.2% Triton X-100, 10 mM βME). Sample was loaded at a flow rate of 1 mL/min. NS3/4A protease complex-containing fractions were pooled and concentrated to approximately 0.5 mg/ml. The purity of the NS3/4A protease complexes, derived from the BMS, H77 and J4L6S strains, were judged to be greater than 90% by SDS-PAGE and mass spectrometry analyses. The enzyme was stored at −80° C., thawed on ice and diluted prior to use in assay buffer.
The purpose of this in vitro assay was to measure the inhibition of HCV NS3 protease complexes, derived from the BMS strain, H77 strain or J4L6S strain, as described above, by compounds of the present disclosure. This assay provides an indication of how effective compounds of the present disclosure would be in inhibiting HCV NS3 proteolytic activity.
In order to monitor HCV NS3/4A protease activity, an NS3/4A peptide substrate was used. The substrate was RET S1 (Resonance Energy Transfer Depsipeptide Substrate; AnaSpec, Inc. cat # 22991) (FRET peptide), described by Taliani et al. in Anal. Biochem. 240(2):60-67 (1996). The sequence of this peptide is loosely based on the NS4A/NS4B natural cleavage site for the HCV NS3 protease except there is an ester linkage rather than an amide bond at the cleavage site. The peptide also contains a fluorescence donor, EDANS, near one end of the peptide and an acceptor, DABCYL, near the other end. The fluorescence of the peptide is quenched by […] resonance energy transfer (RET) between the donor and the acceptor, but as the NS3 protease cleaves the peptide the products are released from RET quenching and the fluorescence of the donor becomes apparent.
The peptide substrate was incubated with one of the three recombinant NS3/4A protease complexes, in the absence or presence of a compound of the present disclosure. The inhibitory effects of a compound were determined by monitoring the formation of fluorescent reaction product in real time using a Cytofluor Series 4000.
Assay buffer: 50 mM HEPES, pH 7.5; 0.15 M NaCl; 0.1% Triton; 15% Glycerol; 10 mM βME. Substrate: 2 μM final concentration (from a 2 mM stock solution in DMSO stored at −20° C.). HCV NS3/4A protease type 1a (1b), 2-3 nM final concentration (from a 5 μM stock solution in 25 mM HEPES, pH 7.5, 20% glycerol, 300 mM NaCl, 0.2% Triton-X100, 10 mM βME). […]

[2] = tested on: HCV replicon in HUH-7 cells; assay: HCV replicon FRET assay; type: cell-based, Hepatitis C virus (strain 1b); conditions: Table 1
Description: An HCV replicon whole cell system was established as described by Lohmann V, Korner F, Koch J, Herian U, Theilmann L, Bartenschlager R., Science 285(5424): 110-3 (1999). This system enabled us to evaluate the effects of our HCV Protease compounds on HCV RNA replication. Briefly, using the HCV strain 1b sequence described in the Lohmann paper (Assession number: AJ238799), an HCV cDNA was synthesized by Operon Technologies, Inc. (Alameda, Calif.), and the full-length replicon was then assembled in plasmid pGem9zf(+) (Promega, Madison, Wis.) using standard molecular biology techniques. The replicon consists of (i) the HCV 5′ UTR fused to the first 12 amino acids of the capsid protein, (ii) the neomycin phosphotransferase gene (neo), (iii) the IRES from encephalomyocarditis virus (EMCV), and (iv) HCV NS3 to NS5B genes and the HCV 3′ UTR. Plasmid DNAs were linearized with ScaI and RNA transcripts were synthesized in vitro using the T7 MegaScript transcription kit (Ambion, Austin, Tex.) according to manufacturer's directions. In vitro transcripts of the cDNA were transfected into the human hepatoma cell line, HUH-7. […] Resulting cell lines were characterized for positive and negative strand RNA production and protein production over time.
The HCV replicon FRET assay was developed to monitor the inhibitory effects of compounds described in the disclosure on HCV viral replication. HUH-7 cells, constitutively expressing the HCV replicon, were grown in Dulbecco's Modified Eagle Media (DMEM) (Gibco-BRL) containing 10% Fetal calf serum (FCS) (Sigma) and 1 mg/ml G418 (Gibco-BRL). Cells were seeded the night before (1.5×10^4 cells/well) in 96-well tissue-culture sterile plates. Compound and no compound controls were prepared in DMEM containing 4% FCS, 1:100 Penicillin/Streptomysin (Gibco-BRL), 1:100 L-glutamine and 5% DMSO in the dilution plate (0.5% DMSO final concentration in the assay). Compound/DMSO mixes were added to the cells and incubated for 4 days at 37° C. After 4 days, cells were first assessed for cytotoxicity using alamar Blue (Trek Diagnotstic Systems) for a CC50 reading. The toxicity of compound (CC50) was determined by adding 1/10th volume of alamarBlue to the media incubating the cells. After 4 h, the fluorescence signal from each well was read, with an excitation wavelength at 530 nm and an emission wavelength of 580 nm, using the Cytofluor Series 4000 (Perspective Biosystems). Plates were then rinsed thoroughly with Phosphate-Buffered Saline (PBS) (3 times 150 μl). The cells were lysed with 25 μl of a lysis assay reagent containing an HCV protease substrate (5× cell Luciferase cell culture lysis reagent (Promega #E153A) diluted to 1× with distilled water, NaCl added to 150 mM final, the FRET peptide substrate (as described for the enzyme assay above) diluted to 10 μM final from a 2 mM stock in 100% DMSO. The plate was then placed into the Cytofluor 4000 instrument which had been set to 340 nm excitation/490 nm emissions, automatic mode for 21 cycles and the plate read in a kinetic mode. EC50 determinations were carried out as described for the IC50 determinations.

[3] = Hepatitis C virus, Huh-7, read-out: EC50 Range, HCV replicon cell assay
[4] = read-out: EC50 Range, HCV replicon cell assay

T1 sequence (P27958 1027-1657, one chain of several): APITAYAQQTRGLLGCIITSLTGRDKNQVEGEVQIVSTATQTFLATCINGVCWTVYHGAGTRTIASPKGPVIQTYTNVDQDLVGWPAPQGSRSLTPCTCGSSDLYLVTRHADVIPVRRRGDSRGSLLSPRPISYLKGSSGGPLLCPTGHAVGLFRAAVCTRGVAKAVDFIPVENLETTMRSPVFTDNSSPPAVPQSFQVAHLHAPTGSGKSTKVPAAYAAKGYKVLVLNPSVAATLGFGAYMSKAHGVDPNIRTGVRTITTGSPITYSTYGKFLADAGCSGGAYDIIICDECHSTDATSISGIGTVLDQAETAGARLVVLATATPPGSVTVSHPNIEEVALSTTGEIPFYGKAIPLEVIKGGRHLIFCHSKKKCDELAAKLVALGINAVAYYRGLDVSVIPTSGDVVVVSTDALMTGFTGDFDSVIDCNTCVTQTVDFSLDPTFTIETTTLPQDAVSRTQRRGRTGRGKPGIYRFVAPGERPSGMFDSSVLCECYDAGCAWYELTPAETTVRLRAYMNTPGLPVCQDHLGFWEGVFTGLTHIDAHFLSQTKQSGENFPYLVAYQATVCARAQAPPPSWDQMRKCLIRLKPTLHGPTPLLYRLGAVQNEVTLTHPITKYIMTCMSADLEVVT

SMILES | IC50 [1] [nM] | EC50 [2, 3] [nM] | EC50 [2, 4] [nM]
C=C[C@@H]1C[C@]1(NC(=O)[C@@H]1C[C@@H](Oc2cc(-c3cccs3)cc(-c3ccccc3)n2)CN1C(=O)[C@@H](OC(=O)NC(C)(C)C)C(C)(C)C)C(=O)NS(=O)(=O)C1CC1 [Example 55Compound 55] | < 100 | 500 to 5000 | 
C=C[C@@H]1C[C@]1(NC(=O)[C@@H]1C[C@@H](Oc2cc(-c3ccccc3)nc3cc(OC)ccc23)CN1C(=O)[C@@H](O)Cc1c[nH]cn1)C(=O)NS(=O)(=O)C1CC1 [Example 4,Compound 3] | 100 to 1000 | > 5000 | 
C=C[C@@H]1C[C@]1(NC(=O)[C@@H]1C[C@@H](Oc2nccc3ccccc23)CN1C(=O)[C@@H](OC(=O)Nc1ccc(OC)cc1)C(C)(C)C)C(=O)NS(=O)(=O)C1CC1 [Example 31] | 100 to 1000 | 500 to 5000 | 
C=C[C@@H]1C[C@]1(NC(=O)[C@@H]1C[C@@H](Oc2cc(-c3ccccc3)nc3cc(OC)ccc23)CN1C(=O)[C@H](O)c1ccccc1)C(=O)NS(=O)(=O)C1CC1 [Example 18] | 100 to 1000 | > 5000 | 
C=C[C@@H]1C[C@]1(NC(=O)[C@@H]1C[C@@H](Oc2nccc3cc(OC)ccc23)CN1C(=O)[C@@H](OC(=O)NC1CCCC1)C(C)C)C(=O)NS(=O)(=O)C1CC1 (stereo in doubt) [Example 53Compound 53] | > 1000 |  | > 5000
C=C[C@@H]1C[C@]1(NC(=O)[C@@H]1C[C@@H](Oc2nccc3ccccc23)CN1C(=O)[C@@H](OC(=O)NCC)C(C)(C)C)C(=O)NS(=O)(=O)C1CC1 [Example 25] | 100 to 1000 | 500 to 5000 | 
C=C[C@@H]1C[C@]1(NC(=O)[C@@H]1C[C@@H](Oc2nccc3ccccc23)CN1C(=O)[C@@H](OC(=O)Nc1ccccc1OC)C(C)(C)C)C(=O)NS(=O)(=O)C1CC1 [Example 29] | 100 to 1000 | 500 to 5000 | 
C=C[C@@H]1C[C@]1(NC(=O)[C@@H]1C[C@@H](Oc2cc(-c3ccccc3)nc3cc(OC)ccc23)CN1C(=O)[C@@H](O)C(C)C)C(=O)NS(=O)(=O)C1CC1 (stereo in doubt) [Example 4,Compound 5] | < 100 | 500 to 5000 | 
C=C[C@@H]1C[C@]1(NC(=O)[C@@H]1C[C@@H](Oc2nc(-c3ccc(OC(F)(F)F)cc3)cc3cc(OC)ccc23)CN1C(=O)[C@@H](O)C1CCCCC1)C(=O)NS(=O)(=O)C1CC1 [Example 62Compound 62] | 100 to 1000 | 500 to 5000 | 
C=C[C@@H]1C[C@]1(NC(=O)[C@@H]1CC(Oc2cc(-c3ccccc3)nc3cc(OC)ccc23)CN1C(=O)[C@@H](O)C(C)(C)C)C(=O)NS(=O)(=O)C1(CC2CC2)CC1 (some centres unmarked) [Example 12] | < 100 | 500 to 5000 | 
C=C[C@@H]1C[C@]1(NC(=O)[C@@H]1C[C@@H](Oc2nccc3cc(OC)ccc23)CN1C(=O)[C@@H](O)C(C)C)C(=O)NS(=O)(=O)C1CC1 [Example 50Compound 50] | 100 to 1000 |  | 500 to 5000
CCC1C[C@]1(NC(=O)[C@@H]1C[C@@H](Oc2cc(-c3ccccc3)nc3cc(OC)ccc23)CN1C(=O)C(O)Cc1c[nH]cn1)C(=O)NS(=O)(=O)C1CC1 (some centres unmarked) [Example 16] | 100 to 1000 | > 5000 | 
C=C[C@@H]1C[C@]1(NC(=O)[C@@H]1C[C@@H](Oc2nccc3cc(OC)ccc23)CN1C(=O)[C@@H](OC(=O)NC1CCCC1)C(C)C)C(=O)NS(=O)(=O)C1CC1 [Example 51Compound 51] | < 100 |  | 500 to 5000
C=C[C@@H]1C[C@]1(NC(=O)[C@@H]1C[C@@H](Oc2nccc3cc(OC)ccc23)CN1C(=O)[C@@H](OC(=O)NC(C)(C)C)C(C)(C)C)C(=O)NS(=O)(=O)c1ccccc1 [Example 59Compound 59] | 100 to 1000 | 500 to 5000 | 
C=C[C@@H]1C[C@]1(NC(=O)[C@@H]1C[C@@H](Oc2cc(-c3ccccc3)nc3cc(OC)ccc23)CN1C(=O)[C@@H](OC(=O)NC1CCCC1)C(C)(C)C)C(=O)NS(=O)(=O)C1CC1 [Example 5,Compound 3] | < 100 | < 500 | 
C=C[C@@H]1C[C@]1(NC(=O)[C@@H]1C[C@@H](Oc2cc(-c3ccccc3)nc3cc(OC)ccc23)CN1C(=O)[C@@H](O)c1ccccc1)C(=O)NS(=O)(=O)C1CC1 [Example 4,Compound 1] | 100 to 1000 | > 5000 | 
